Article PMC4154858, “Inhibition of the SR Protein-Phosphorylating CLK Kinases of Plasmodium falciparum Impairs Blood Stage Replication and Malaria Transmission” (PLoS ONE, 2014)

Columns and labels:
Assay type in all cases: biochemical
Conditions in all cases: labelled compound; histone H1, MBP or casein as phosphoacceptor; 10 µM ATP, Mg/Mn, pH 7.5, 37 °C
PfCLK-3 = target: T1, PfCLK-3 (Plasmodium falciparum, UniProt Q8IIL5); test: radiometric kinase assay of immunoprecipitate, autoradiography
T1 construct: gene PF3D7_1114700; endogenous full-length, about 80 kDa, immunoprecipitated from mixed asexual blood stage lysate on protein G-beads
T1 sequence (Q8IIL5 1-699): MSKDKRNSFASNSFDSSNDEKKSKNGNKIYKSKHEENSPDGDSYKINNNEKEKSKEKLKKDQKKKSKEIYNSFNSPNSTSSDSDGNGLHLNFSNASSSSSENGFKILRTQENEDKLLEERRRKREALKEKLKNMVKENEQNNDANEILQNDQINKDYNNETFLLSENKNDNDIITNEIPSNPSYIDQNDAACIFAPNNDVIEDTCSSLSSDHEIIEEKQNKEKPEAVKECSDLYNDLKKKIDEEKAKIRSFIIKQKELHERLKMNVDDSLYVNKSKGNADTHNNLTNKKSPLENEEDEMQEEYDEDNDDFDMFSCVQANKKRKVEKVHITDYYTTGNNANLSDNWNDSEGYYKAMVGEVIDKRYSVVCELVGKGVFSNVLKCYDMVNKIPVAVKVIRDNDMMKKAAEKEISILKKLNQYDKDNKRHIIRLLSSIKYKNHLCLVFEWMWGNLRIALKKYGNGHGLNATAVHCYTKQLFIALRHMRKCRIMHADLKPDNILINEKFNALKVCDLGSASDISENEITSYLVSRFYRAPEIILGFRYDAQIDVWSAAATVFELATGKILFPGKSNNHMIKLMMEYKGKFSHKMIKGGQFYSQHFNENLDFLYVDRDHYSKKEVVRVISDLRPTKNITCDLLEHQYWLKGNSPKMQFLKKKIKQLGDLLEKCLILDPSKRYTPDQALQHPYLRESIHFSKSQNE

PfCLK-4 = target: T2, PfCLK-4 (Plasmodium falciparum, UniProt O77306); test: as above
T2 construct: gene PF3D7_0302100; endogenous full-length, about 160 kDa, immunoprecipitated from mixed asexual blood stage lysate on protein G-beads
T2 sequence (O77306 1-1338): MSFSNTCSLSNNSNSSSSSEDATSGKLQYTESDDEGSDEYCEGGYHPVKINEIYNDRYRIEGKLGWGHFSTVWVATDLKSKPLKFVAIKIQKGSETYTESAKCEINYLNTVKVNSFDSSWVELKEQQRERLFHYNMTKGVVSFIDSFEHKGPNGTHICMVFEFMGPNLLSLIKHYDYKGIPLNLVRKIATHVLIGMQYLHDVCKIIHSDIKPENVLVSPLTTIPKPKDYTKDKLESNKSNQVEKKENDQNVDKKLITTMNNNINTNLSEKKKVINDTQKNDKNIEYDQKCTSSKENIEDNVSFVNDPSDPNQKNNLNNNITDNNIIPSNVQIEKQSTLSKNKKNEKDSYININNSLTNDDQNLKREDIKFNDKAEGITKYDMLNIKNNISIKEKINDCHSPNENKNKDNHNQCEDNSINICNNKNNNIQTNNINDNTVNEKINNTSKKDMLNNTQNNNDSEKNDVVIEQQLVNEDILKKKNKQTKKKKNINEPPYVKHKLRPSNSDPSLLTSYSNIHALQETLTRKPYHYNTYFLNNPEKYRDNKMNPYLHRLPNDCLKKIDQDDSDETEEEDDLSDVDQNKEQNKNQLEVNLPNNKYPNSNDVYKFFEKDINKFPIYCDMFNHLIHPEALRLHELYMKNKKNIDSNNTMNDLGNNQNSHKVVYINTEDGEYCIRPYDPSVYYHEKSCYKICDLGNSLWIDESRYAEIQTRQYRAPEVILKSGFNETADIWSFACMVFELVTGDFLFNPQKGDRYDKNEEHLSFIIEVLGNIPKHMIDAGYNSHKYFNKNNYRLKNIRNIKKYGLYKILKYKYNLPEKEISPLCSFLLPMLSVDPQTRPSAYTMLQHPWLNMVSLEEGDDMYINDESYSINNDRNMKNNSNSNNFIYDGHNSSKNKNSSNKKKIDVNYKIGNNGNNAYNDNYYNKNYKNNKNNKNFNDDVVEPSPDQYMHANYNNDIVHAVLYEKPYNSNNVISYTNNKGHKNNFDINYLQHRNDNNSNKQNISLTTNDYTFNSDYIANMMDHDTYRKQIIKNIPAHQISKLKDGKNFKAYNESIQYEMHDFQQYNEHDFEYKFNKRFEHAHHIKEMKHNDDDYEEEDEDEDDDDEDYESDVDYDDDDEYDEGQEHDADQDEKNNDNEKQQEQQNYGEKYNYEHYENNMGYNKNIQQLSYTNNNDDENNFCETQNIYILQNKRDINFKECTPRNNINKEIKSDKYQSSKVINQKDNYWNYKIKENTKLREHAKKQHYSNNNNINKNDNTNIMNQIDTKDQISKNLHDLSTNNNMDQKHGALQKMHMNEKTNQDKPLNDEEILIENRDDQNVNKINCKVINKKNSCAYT

PfPK6 = target: T3, PfPK6 (Plasmodium falciparum, UniProt O77239); test: radiometric kinase assay, autoradiography
T3 construct: gene PK6; recombinant His6-tagged, purified as previously reported
T3 sequence (O77239 1-305): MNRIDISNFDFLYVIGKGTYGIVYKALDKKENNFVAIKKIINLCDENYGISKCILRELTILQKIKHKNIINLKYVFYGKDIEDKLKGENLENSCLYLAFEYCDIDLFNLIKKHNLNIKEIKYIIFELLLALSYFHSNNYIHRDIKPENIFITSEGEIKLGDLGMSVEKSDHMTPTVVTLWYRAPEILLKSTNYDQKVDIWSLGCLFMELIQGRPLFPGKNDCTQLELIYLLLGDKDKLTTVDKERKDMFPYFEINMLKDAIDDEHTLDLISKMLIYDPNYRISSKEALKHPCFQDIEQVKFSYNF

PfCLK-2 = target: T4, PfCLK-2 (Plasmodium falciparum, UniProt Q8IL41); test: radiometric kinase assay of immunoprecipitate, autoradiography
T4 construct: gene PF3D7_1443000; endogenous full-length, about 150 kDa, immunoprecipitated from mixed asexual blood stage lysate on protein G-beads
T4 sequence (Q8IL41 1-1268): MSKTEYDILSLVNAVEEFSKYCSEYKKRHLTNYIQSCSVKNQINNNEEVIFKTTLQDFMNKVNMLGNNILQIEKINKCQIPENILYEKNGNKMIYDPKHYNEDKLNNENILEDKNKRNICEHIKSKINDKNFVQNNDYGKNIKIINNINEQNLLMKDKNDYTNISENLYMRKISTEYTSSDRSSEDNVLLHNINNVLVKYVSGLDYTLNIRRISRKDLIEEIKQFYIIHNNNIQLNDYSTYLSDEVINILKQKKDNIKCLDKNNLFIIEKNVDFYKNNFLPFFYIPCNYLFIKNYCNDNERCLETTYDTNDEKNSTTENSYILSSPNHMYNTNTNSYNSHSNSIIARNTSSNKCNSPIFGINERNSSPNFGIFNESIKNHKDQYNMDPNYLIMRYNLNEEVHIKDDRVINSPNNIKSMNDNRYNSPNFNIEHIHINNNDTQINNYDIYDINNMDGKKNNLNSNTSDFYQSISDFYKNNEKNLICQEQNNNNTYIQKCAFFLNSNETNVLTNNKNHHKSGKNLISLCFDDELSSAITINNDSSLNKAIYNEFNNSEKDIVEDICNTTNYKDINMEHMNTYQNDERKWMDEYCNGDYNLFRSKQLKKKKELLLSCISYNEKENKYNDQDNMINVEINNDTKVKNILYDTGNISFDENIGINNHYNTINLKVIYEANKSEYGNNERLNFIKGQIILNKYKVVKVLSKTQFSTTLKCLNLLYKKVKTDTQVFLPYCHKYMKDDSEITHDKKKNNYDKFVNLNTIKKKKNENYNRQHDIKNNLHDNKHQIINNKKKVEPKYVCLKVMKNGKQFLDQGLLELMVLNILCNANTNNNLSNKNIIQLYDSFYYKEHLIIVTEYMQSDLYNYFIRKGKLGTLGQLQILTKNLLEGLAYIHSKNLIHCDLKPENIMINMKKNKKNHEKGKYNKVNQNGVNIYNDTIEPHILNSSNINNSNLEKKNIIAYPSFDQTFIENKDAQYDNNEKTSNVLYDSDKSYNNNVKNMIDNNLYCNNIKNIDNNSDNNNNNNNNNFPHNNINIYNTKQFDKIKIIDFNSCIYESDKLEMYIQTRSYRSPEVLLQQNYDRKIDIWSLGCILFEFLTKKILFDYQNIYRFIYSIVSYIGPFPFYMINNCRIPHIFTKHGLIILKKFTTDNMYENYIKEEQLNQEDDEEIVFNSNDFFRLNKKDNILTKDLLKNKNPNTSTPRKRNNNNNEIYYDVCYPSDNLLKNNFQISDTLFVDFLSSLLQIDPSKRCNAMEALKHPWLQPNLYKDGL

SMILES: Nc1ncnc2c1ncn2[C@@H]1O[C@H](COP(=O)(O)OP(=O)(O)OP(=O)(O)O)[C@@H](O)[C@H]1O [ATP]
- radiometric kinase assay of immunoprecipitate, autoradiography (PfCLK-3): All PfCLKs were associated with phosphorylation activity of all three substrates
- radiometric kinase assay of immunoprecipitate, autoradiography (PfCLK-4): All PfCLKs were associated with phosphorylation activity of all three substrates
- radiometric kinase assay, autoradiography (PfPK6): also exhibited strong phosphorylation activity of the three exogenous substrates
- radiometric kinase assay of immunoprecipitate, autoradiography (PfCLK-2): All PfCLKs were associated with phosphorylation activity of all three substrates
